Read-outs that look alike come from different tables or passages of the source.
Target: BTK (Homo sapiens, UniProt Q06187)
Test: biochemical
[1] = read-out: BTK inhibition (%), 0.75 uM BTK, […] probe 3l, 15 min preincubation

Sequence of BTK (Q06187 402-655 limits assumed): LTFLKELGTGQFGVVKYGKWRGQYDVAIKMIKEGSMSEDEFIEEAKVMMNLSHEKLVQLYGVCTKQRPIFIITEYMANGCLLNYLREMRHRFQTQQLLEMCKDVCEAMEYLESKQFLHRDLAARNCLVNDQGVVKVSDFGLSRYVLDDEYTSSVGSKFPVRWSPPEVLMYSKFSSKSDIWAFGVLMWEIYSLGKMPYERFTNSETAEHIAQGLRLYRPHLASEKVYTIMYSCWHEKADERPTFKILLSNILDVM

Row | Compound | inhibition at 10 µM [1] | inhibition at 10 µM (read-out: BTK inhibition (%))
1 | CC/C(=C(/c1ccc(/C=C/C(=O)O)cc1)c1ccc2[nH]ncc2c1)c1ccc(F)cc1Cl [PCM-0216010] | 81.1% | 
2 | C[C@]12C=CC(=O)C=C1CC[C@@H]1[C@@H]2CC[C@@]2(C)[C@H]1CC[C@]2(C)O [PCM-0215063] |  | -11.7%
3 | CNC(=O)Nc1ccc(-c2nc(N3CC4CCC(C3)O4)c3cnn(C4CCC5(CC4)OCCO5)c3n2)cc1 [PCM-0095327] | 15.9% | 
4 | CC(C)=CCC/C(C)=C/CC/C(C)=C/CCC(=O)OC/C=C(\C)CCC=C(C)C [PCM-0216575] | 7.7% | 
5 | CO/N=C(\C(=O)N[C@@H]1C(=O)N2C(C(=O)O)=C(CSc3nc(C)c(CC(=O)O)s3)CS[C@H]12)c1csc(N)n1 [PCM-0215155] | -2.3% | 
6 | N[C@@H](CSCCB(O)O)C(=O)O [PCM-0215605] | -5.4% | 
7 | C[C@H](O)[C@H](O)c1cnc2nc(N)[nH]c(=O)c2n1 [PCM-0216576] | 6.8% | 
8 | CCOc1ccccc1-n1c(C(C)N2CCN(C(=O)COc3ccc(Cl)cc3)CC2)nc2ccccc2c1=O (centres unmarked) [PCM-0095811] | 15.4% | 
9 | COc1ccc(C(NC(=O)c2cnc(-c3cccnn3)[nH]c2=O)c2ccc(OC)cc2)cc1 [PCM-0215803] | 18.5% | 
10 | CC(=O)O[C@@H]1CC[C@@]2(C)[C@@H](CC[C@]3(C)[C@@H]2C(=O)C=C2[C@@H]4[C@@H](C)[C@H](C)CC[C@]4(C)CC[C@]23C)[C@@]1(C)C(=O)O [PCM-0216599] | 88% | 
11 | Cc1cnc(NC(=O)C2=C(O)c3ccccc3S(=O)(=O)N2C)s1 [PCM-0086060] | -6.2% | 
12 | O=C1Nc2ccccc2C1=O [PCM-0214846] | 11.7% | 
13 | CC(C)n1c(=O)n(C)c2cnc3cc(F)c(-c4ccc(OCCCN5CCCCC5)nc4)cc3c21 [PCM-0216091] | -13.9% | 
14 | NC(=O)C(c1ccccc1)(c1ccccc1)[C@@H]1CCN(CCc2ccc3c(c2)CCO3)C1 [PCM-0086175] | 4.7% | 
15 | CC#CCn1c(N2CCC[C@@H](N)C2)nc2c1c(=O)n(Cc1nc(C)c3ccccc3n1)c(=O)n2C [PCM-0090431] | -3.1% | 
16 | O=C1NC(=O)[C@@H](c2cn3c4c(cccc24)CCC3)[C@@H]1c1c[nH]c2ccccc12 [PCM-0095697] | 29% | 
17 | COc1ccc(CC(=O)Nc2nc3c(s2)CCc2ccccc2-3)cc1OC [PCM-0215753] | 55.9% | 
18 | C#CCN[C@@H]1CCc2ccccc21 [PCM-0090264] | -9.3% | 
19 | CCOc1ccc2ccccc2c1C(=O)N[C@@H]1C(=O)N2[C@@H]1SC(C)(C)[C@@H]2C(=O)O [PCM-0214744] | -11.7% | 
20 | COc1ccc(C[C@H](N)C(=O)N[C@H]2[C@@H](O)[C@H](n3cnc4c(N(C)C)ncnc43)O[C@@H]2CO)cc1 [PCM-0215332] | -3.1% | 
21 | Cc1cc(=O)c(C(=O)N[C@@H](C(=O)N[C@@H]2C(=O)N3C(C(=O)O)=C(CSc4nnnn4C)CS[C@H]23)c2ccc(O)cc2)c[nH]1 [PCM-0216260] | 23.2% | 
22 | C[C@@H]1O[C@@H](O[C@H]2[C@H](O[C@H]3CC[C@@]4(C)[C@@H](CC[C@]5(C)[C@@H]4CC=C4[C@@H]6CC(C)(C)CC[C@]6(C(=O)O[C@@H]6O[C@H](CO[C@@H]7O[C@H](CO)[C@@H](O)[C@H](O)[C@H]7O)[C@@H](O)[C@H](O)[C@H]6O)CC[C@]45C)[C@]3(C)CO)OC[C@H](O)[C@@H]2O)[C@H](O)[C@H](O[C@@H]2O[C@H](CO)[C@@H](O[C@@H]3O[C@H](CO)[C@@H](O)[C@H](O)[C@H]3O)[C@H](O)[C@H]2O)[C@H]1O [PCM-0215007] | -12.5% | 
23 | c1coc(CNc2ncnc3nc[nH]c23)c1 [PCM-0000462] | 10.9% | 
24 | CC(C)c1cnn2c(NCc3ccccc3-n3cccn3)nc(OC3CCCNC3)nc12 (centres unmarked) [PCM-0215792] | -2.8% | 
25 | Cc1ccc(-c2c(-c3nn(C)c4ncnc(N5CC[C@H](N6CCCCC6)C5)c34)cnn2C)cc1 [PCM-0095421] | -2.3% | 

Row | Compound | inhibition at 10 µM [1] | inhibition at 10 µM (read-out: BTK inhibition (%))
26 | CCNC(=O)Nc1ccc(-c2nc(N3CCOC[C@@H]3C)c3c(n2)C(C)(C)S(=O)(=O)C3)cc1 [PCM-0215744] | -22.8% | 
27 | C/C=C(/C)C(=O)O [PCM-0215002] | 14.5% | 
28 | O[C@@H]1CO[C@H]2[C@@H]1OC[C@@H]2O [PCM-0214776] | -3.9% | 
29 | CC1=C(CSC(=S)N2CCCCC2)C(=O)c2ccccc2C1=O [PCM-0215883] | 21.6% | 
30 | CC(=O)CCc1ccc(OC(C)=O)cc1 [PCM-0216104] | -10.8% | 
31 | Nc1ccc(S(=O)(=O)Nc2ccccn2)cc1 [PCM-0086480] | -13.6% | 
32 | Cc1ccc(NC(=O)Nc2cc(-c3ccccc3-c3nn[nH]n3)ccc2N(CC(C)C)CC(C)C)cc1 [PCM-0215955] | 72.6% | 
33 | CS(=O)(=O)c1ccc(C(=O)Nc2ccc(Cl)c(-c3ccccn3)c2)c(Cl)c1 [PCM-0095048] | 6.2% | 
34 | O=C(O)[C@@H]1CCCN1 [PCM-0216221] | -24.7% | 
35 | COC(=O)C1=CO[C@@H](O[C@@H]2O[C@H](CO)[C@@H](O)[C@H](O)[C@H]2O)[C@@H]2C(CO)=C[C@H](O)[C@H]12 [PCM-0216324] | -7.7% | 
36 | CNC(=O)c1cc(Oc2ccc3nc(N[C@@H]4CCCC[C@H]4O)sc3c2)ccn1 [PCM-0215436] | -9% | 
37 | CC(=O)c1ccc(O)c(C(=O)O)c1 [PCM-0215053] | -9.3% | 
38 | O=C(O)CCCCC1CCSS1 (centres unmarked) [PCM-0090722] | -16.3% | 
39 | COc1ccc(COc2ccc(Cc3cnc(N)nc3N)cc2OC)cc1 [PCM-0095630] | -7.6% | 
40 | CC(C)C[C@H](NP(=O)(O)O[C@@H]1O[C@@H](C)[C@H](O)[C@@H](O)[C@H]1O)C(=O)N[C@@H](Cc1c[nH]c2ccccc12)C(=O)O [PCM-0215347] | 14.7% | 
41 | c1ccc(Cn2c(-c3ccc(OC[C@H](C4CCNCC4)n4c(-c5ccccc5)nc5ccccc54)cc3)nc3ccccc32)cc1 [PCM-0215350] | 86.5% | 
42 | CNCc1ccc(C)c(NC(=O)c2ccc(Nc3nc(-c4ccccc4)c4ccccc4n3)cc2)c1 [PCM-0095748] | 79.5% | 
43 | C[n+]1c2ccccc2nc2ccccc21 [PCM-0216061] | 64.9% | 
44 | CC(C)=CCC[C@](C)(O)[C@H]1CC[C@]2(C)[C@@H]1[C@H](O)C[C@@H]1[C@@]3(C)CC[C@H](O[C@@H]4O[C@H](CO)[C@@H](O)[C@H](O)[C@H]4O[C@@H]4O[C@H](CO)[C@@H](O)[C@H](O)[C@H]4O)C(C)(C)[C@@H]3CC[C@]12C [PCM-0216610] | 16.2% | 
45 | Ac-PHSCN-NH2 [PCM-0215851] | -5.1% | 
46 | O=C(O)c1ccc2c(c1)nc(Nc1cccc(Cl)c1)c1ccncc12 [PCM-0095287] | 13.1% | 
47 | CN1c2ccccc2C(=O)Nc2cnc(Nc3ccc(N4CCC(O)CC4)cc3)nc21 [PCM-0215745] | 93.8% | 
48 | COc1cc(C=O)ccc1O [PCM-0094868] | 21.8% | 
49 | COc1ccc(Cn2c3ncnc4c(ncn4Cc4ccc(OC)cc4)c-3nc2=O)cc1 [PCM-0215699] | 7.7% | 
50 | Cc1ccc2nc(NC(=O)CSc3nc4c(c(=O)n3-c3ccccc3)SCC4)sc2c1 [PCM-0215324] | 10.2% | 

Row | Compound | inhibition at 10 µM [1] | inhibition at 10 µM (read-out: BTK inhibition (%))
51 | C1N2CN3CN1CN(C2)C3 [PCM-0086204] | -8.6% | 
52 | COc1c(O)cc2c(c1O)[C@@H]1O[C@H](CO)[C@@H](O)[C@H](O)[C@H]1OC2=O [PCM-0214672] | 7% | 
53 | CC(O)=C(C#N)C(=O)Nc1ccc(C(F)(F)F)cc1 [PCM-0214764] | 0% | 
54 | COc1cc2c(cc1OC)CN(CCc1ccc(NC(=O)c3cc(OC)c(OC)cc3NC(=O)c3cnc4ccccc4c3)cc1)CC2 [PCM-0095616] | 4.6% | 
55 | O=C1C([C@@H]2O[C@H](CO)[C@@H](O)[C@H](O)[C@H]2O)=C(O)/C(=C(O)/C=C/c2ccc(O)cc2)C(=O)C1(O)[C@@H]1O[C@H](CO)[C@@H](O)[C@H](O)[C@H]1O (some centres unmarked) [PCM-0216360] |  | 23.9%
56 | C[C@]12CC[C@@H]3c4ccc(OC(=O)c5ccccc5)cc4CC[C@H]3[C@@H]1CC[C@@H]2O [PCM-0095636] | -7.8% | 
57 | COc1cc2nc(N3CCN(C(=O)c4ccco4)CC3)nc(N)c2cc1OC [PCM-0065512] | -6% | 
58 | O=C(O)[C@H]1O[C@@H](Oc2cc3oc(-c4ccc(O)cc4)cc(=O)c3c(O)c2O)[C@H](O)[C@@H](O)[C@@H]1O [PCM-0215170] |  | 0%
59 | O=P(O)(O)Oc1cccc2ccccc12 [PCM-0216167] |  | -4.6%
60 | CN(C)C/C=C/C(=O)Nc1cc2c(Nc3ccc(F)c(Cl)c3)ncnc2cc1O[C@H]1CCOC1 [PCM-0094907] | 84.8% | 
61 | CC(C)=CCC/C(C)=C/CC/C(C)=C/CC/C(C)=C/CC1=C(C)C(=O)c2ccccc2C1=O [PCM-0216051] | 2.3% | 
62 | COc1ccc(-c2coc3cc(O[C@@H]4O[C@H](CO)[C@@H](O)[C@H](O)[C@H]4O)ccc3c2=O)cc1O [PCM-0216381] | -10% | 
63 | C[n+]1ccccc1/C=N/O [PCM-0086551] | -18.5% | 
64 | O=c1cc(N2CCOCC2)oc2c(-c3ccccc3)cccc12 [PCM-0065588] | -22.1% | 
65 | NS(=O)(=O)c1cc2c(cc1Cl)NC(C(Cl)Cl)NS2(=O)=O (centres unmarked) [PCM-0086441] | -14% | 
66 | COc1ccc(/C=C/c2cc(O)cc(O[C@@H]3O[C@H](CO)[C@@H](O)[C@H](O)[C@H]3O)c2)cc1O [PCM-0214544] | 6.9% | 
67 | Cn1nccc1Nc1nccc(-c2cc3c(s2)C(C)(C)N(CCN2CCOCC2)C3=O)n1 [PCM-0215875] | 6.9% | 
68 | O=C(/C=C/C=C/c1ccc2c(c1)OCO2)N1CCCCC1 [PCM-0006645] | -14% | 
69 | CC(=O)[C@H]1CC[C@H]2[C@@H]3CC=C4C[C@@H](O)CC[C@]4(C)[C@H]3CC[C@]12C [PCM-0086127] | -22.6% | 
70 | CN(C)Cc1ccc(-c2nc3cccc4c3n2CCNC4=O)cc1 [PCM-0095220] | 4.8% | 
71 | Cc1ncc([N+](=O)[O-])n1CC(O)CCl (centres unmarked) [PCM-0085772] | -3.9% | 
72 | O=C(O)c1ccco1 [PCM-0215122] | -21.8% | 
73 | Oc1ccc(-c2nc(-c3ccc(F)cc3)c(-c3ccncc3)[nH]2)cc1 [PCM-0064463] | 18.6% | 
74 | NC(N)=NCCCC[C@H](N)C(=O)O [PCM-0216161] | -8.5% | 
